# Biological target: C5aR (Homo sapiens (Human), UniProt P21730)
# Assay: Calcium mobilization (U937/C5aR or HEK293/C5aR cells, FLIPR)
# Format: cell-based
# Conditions: agonist human C5a at EC80, FLIPR
# Experimental: U937/C5aR cells or HEK293/C5aR cells were washed by PBS and suspended in growth media at the density of 1×10^6 cells/ml. […] to the 384-well plate and culture for overnight. Transfer 250 nl compound solution to the cell plate using Echo, incubate for 60 min. Cells were added with Fluo-4 Direct™ dye and incubate for 50 min at 37° C. 5% CO2 and 10 m at room temperature. Place the cell plate into […] (Molecular Devices). Transfer 10 μl of 5-fold EC80 concentrations of agonist human C5a to the cell plates.
# Sequence of C5aR (P21730 whole entry): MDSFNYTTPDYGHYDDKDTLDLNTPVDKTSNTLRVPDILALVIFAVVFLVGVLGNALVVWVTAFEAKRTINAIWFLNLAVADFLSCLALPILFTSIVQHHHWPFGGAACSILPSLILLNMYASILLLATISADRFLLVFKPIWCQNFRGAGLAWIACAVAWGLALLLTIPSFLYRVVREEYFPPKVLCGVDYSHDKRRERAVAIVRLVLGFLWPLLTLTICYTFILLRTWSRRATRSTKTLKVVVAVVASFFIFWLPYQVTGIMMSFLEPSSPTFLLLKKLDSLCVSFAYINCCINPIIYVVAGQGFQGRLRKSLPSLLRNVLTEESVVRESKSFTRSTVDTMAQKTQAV
row,SMILES,IC50
1,"Cc1cccc(F)c1C(=O)N1C2CCC[C@@H]2C[C@H](C(=O)Nc2cnc(-n3nccn3)c(Cl)c2)[C@@H]1c1ccc(NC2CCCC2)cc1 (relative stereo) [Compound 75, cis-N-(5-chloro-6-(2H-1,2,3-triazol-2-yl)pyridin-3-yl)-2-(4-(cyclopentylamino)phenyl)-1-(2-fluoro-6-methylbenzoyl)octahydro-1H-cyclopenta[b]pyridine-3-carboxamide]",> 10 µM
2,"Cc1ccc(NC(=O)[C@H]2C[C@H]3CCC[C@H]3N(C(=O)c3cnn(C)c3)C2c2ccc(NC3CCCC3)cc2)cc1C(F)(F)F (relative stereo) [Compound 112, cis-2-(4-(cyclopentylamino)phenyl)-1-(1-methyl-1H-pyrazole-4-carbonyl)-N-(4-methyl-3-(trifluoromethyl)phenyl)octahydro-1H-cyclopenta[b]pyridine-3-carboxamide]",> 10 µM
3,"Cc1cccc(F)c1C(=O)N1C(c2ccc(NC3CCN(C)CC3)cc2)C(C(=O)Nc2ccc3c(cnn3C)c2)C[C@@H]2CCC[C@@H]21 (relative stereo) [Compound 117, cis-1-(2-fluoro-6-methylbenzoyl)-N-(1-methyl-1H-indazol-5-yl)-2-(4-((1-methylpiperidin-4-yl)amino)phenyl)octahydro-1H-cyclopenta[b]pyridine-3-carboxamide]",2 to 10 µM
4,"Cc1cccc(F)c1C(=O)N1C(c2ccc(NC3CCOCC3)cc2)C(C(=O)Nc2cnn(C)c2)C[C@@H]2COC[C@@H]21 (relative stereo) [Compound 127, cis-1-(2-fluoro-6-methylbenzoyl)-N-(1-methyl-1H-pyrazol-4-yl)-2-(4-((tetrahydro-2H-pyran-4-yl)amino)phenyl)octahydrofuro[3,4-b]pyridine-3-carboxamide]",2 to 10 µM
5,"Cc1ccc(NC(=O)C2C[C@@H]3CN(CC(F)(F)F)C[C@@H]3N(C(=O)c3c(C)cccc3F)C2c2ccc(NC3CCCC3)cc2)cc1C(F)(F)F (relative stereo) [Compound 206, cis-2-(4-(cyclopentylamino)phenyl)-1-(2-fluoro-6-methylbenzoyl)-N-(4-methyl-3-(trifluoromethyl)phenyl)-6-(2,2,2-trifluoroethyl)octahydro-1H-pyrrolo[3,4-b]pyridine-3-carboxamide]",2 to 10 µM
6,"Cc1ccc(NC(=O)C2CC3CCCC3N(C(=O)c3c(C)cccc3F)C2c2ccc(NC3CCCC3)cc2)cc1C(F)(F)F (stereo in doubt) [Compound 48, (2S,3R,4aS,7aS)-2-(4-(cyclopentylamino)phenyl)-1-(2-fluoro-6-methylbenzoyl)-N-(4-methyl-3-(trifluoromethyl)phenyl)octahydro-1H-cyclopenta[b]pyridine-3-carboxamide]",2 to 10 µM
7,"Cc1ccc(NC(=O)[C@@H]2CCCN(c3ccncn3)[C@H]2c2ccc(NC3CCCC3)cc2)cc1C(F)(F)F [Compound 3, (2R,3R)-2-(4-(cyclopentylamino)phenyl)-N-(4-methyl-3-(trifluoromethyl)phenyl)-1-(pyrimidin-4-yl)piperidine-3-carboxamide]",2 to 10 µM
8,"COC(=O)c1ccccc1S(=O)(=O)N1CCC[C@H](C(=O)Nc2ccc(C)c(C(F)(F)F)c2)[C@@H]1c1ccc(NC2CCCC2)cc1 [Compound 31, methyl 2-(((2R,3S)-2-(4-(cyclopentylamino)phenyl)-3-((4-methyl-3-(trifluoromethyl)phenyl)carbamoyl)piperidin-1-yl)sulfonyl)benzoate]",2 to 10 µM
9,"Cc1ccc(NC(=O)[C@@H]2CCC3CCc4ccccc4C(=O)N3[C@@H]2c2ccc(NC3CCCC3)cc2)cc1C(F)(F)F (stereo partly drawn) [Compound 45, (3R,4S)-4-(4-(cyclopentylamino)phenyl)-N-(4-methyl-3-(trifluoromethyl)phenyl)-6-oxo-1,2,3,4,6,11,12,12a-octahydrobenzo[e]pyrido[1,2-a]azepine-3-carboxamide]",2 to 10 µM
10,"Cc1ccc(NC[C@H]2CCCN(C(=O)c3c(C)cccc3F)[C@H]2c2ccc(NC3CCCC3)cc2)cc1C(F)(F)F [Compound 160, ((2R,3R)-2-(4-(cyclopentylamino)phenyl)-3-(((4-methyl-3-(trifluoromethyl)phenyl)amino)methyl)piperidin-1-yl)(2-fluoro-6-methylphenyl)methanone]",2 to 10 µM
11,"Cc1ccc(NC(=O)[C@H]2CCCN(c3ncnc4ccccc34)[C@H]2c2ccc(N(C(=O)OCc3ccccc3)C3CCCC3)cc2)cc1C(F)(F)F [Compound 163, benzyl cyclopentyl(4-((2R,3S)-3-((4-methyl-3-(trifluoromethyl)phenyl)carbamoyl)-1-(quinazolin-4-yl)piperidin-2-yl)phenyl)carbamate]",2 to 10 µM
12,"Cc1ccc(NC(=O)[C@H]2CCCN(c3ncnc4cnccc34)[C@H]2c2ccc(N(C(=O)OCc3ccccc3)C3CCCC3)cc2)cc1C(F)(F)F [Compound 167, benzyl cyclopentyl(4-((2R,3S)-3-((4-methyl-3-(trifluoromethyl)phenyl)carbamoyl)-1-(pyrido[3,4-d]pyrimidin-4-yl)piperidin-2-yl)phenyl)carbamate]",2 to 10 µM
13,"Cc1ccc(NC(=O)[C@H]2CCCN[C@H]2c2ccc(N(c3nccc4scnc34)C3CCCC3)cc2)cc1C(F)(F)F [Compound 169, (2R,3S)-2-(4-(cyclopentyl(thiazolo[4,5-c]pyridin-4-yl)amino)phenyl)-N-(4-methyl-3-(trifluoromethyl)phenyl)piperidine-3-carboxamide]",2 to 10 µM
14,"Cc1ccc(NC(=O)[C@H]2CCCN[C@H]2c2ccc(N(c3nccc4nccnc34)C3CCCC3)cc2)cc1C(F)(F)F [Compound 172, (2R,3S)-2-(4-(cyclopentyl(pyrido[3,4-b]pyrazin-5-yl)amino)phenyl)-N-(4-methyl-3-(trifluoromethyl)phenyl)piperidine-3-carboxamide]",2 to 10 µM

# Next, values leading:
row,IC50,SMILES
1,2 to 10 µM,"Cc1cccc(F)c1C(=O)N1[C@@H]2COC[C@@H]2CC(C(=O)Nc2cccnc2)[C@@H]1c1ccc(NC2CCOCC2)cc1 (mixture of isomers) [Compound 128, cis-1-(2-fluoro-6-methylbenzoyl)-N-(pyridin-3-yl)-2-(4-((tetrahydro-2H-pyran-4-yl)amino)phenyl)octahydrofuro[3,4-b]pyridine-3-carboxamide]"
2,> 10 µM,"Cc1cc(C)cc(S(=O)(=O)N2CCC[C@H](C(=O)Nc3ccc(C)c(C(F)(F)F)c3)[C@@H]2c2ccc(NC3CCCC3)cc2)c1 [Compound 12, (2R,3S)-2-(4-(cyclopentylamino)phenyl)-1-((3,5-dimethylphenyl)sulfonyl)-N-(4-methyl-3-(trifluoromethyl)phenyl)piperidine-3-carboxamide]"
3,> 10 µM,"COC(=O)c1cccc(C)c1S(=O)(=O)N1CCC[C@H](C(=O)Nc2ccc(C)c(C(F)(F)F)c2)[C@@H]1c1ccc(NC2CCCC2)cc1 [Compound 21, methyl 2-(((2R,3S)-2-(4-(cyclopentylamino)phenyl)-3-((4-methyl-3-(trifluoromethyl)phenyl)carbamoyl)piperidin-1-yl)sulfonyl)-3-methylbenzoate]"
4,2 to 10 µM,"Cc1cccc(F)c1C(=O)N1[C@@H]2CCC[C@@H]2C[C@H](C(=O)NC2CCN(C)CC2)[C@@H]1c1ccc(NC2CCCC2)cc1 [Compound 53, (2R,3S,4aR,7aR)-2-(4-(cyclopentylamino)phenyl)-1-(2-fluoro-6-methylbenzoyl)-N-(1-methylpiperidin-4-yl)octahydro-1H-cyclopenta[b]pyridine-3-carboxamide]"
5,2 to 10 µM,"Cc1ccc(NC(=O)[C@H]2CCCN(Cc3c(C)cccc3F)[C@H]2c2ccc(NC3CCCC3)cc2)cc1C(F)(F)F [Compound 159, (2R,3S)-2-(4-(cyclopentylamino)phenyl)-1-(2-fluoro-6-methylbenzyl)-N-(4-methyl-3-(trifluoromethyl)phenyl)piperidine-3-carboxamide]"
6,2 to 10 µM,"Cc1ccc(NC(=O)[C@H]2CCCN(c3nccc4nccnc34)[C@H]2c2ccc(N(C(=O)OCc3ccccc3)C3CCCC3)cc2)cc1C(F)(F)F [Compound 165, benzyl cyclopentyl(4-((2R,3S)-3-((4-methyl-3-(trifluoromethyl)phenyl)carbamoyl)-1-(pyrido[3,4-b]pyrazin-5-yl)piperidin-2-yl)phenyl)carbamate]"
7,2 to 10 µM,"Cc1ccc(NC(=O)[C@@H]2CCCN[C@H]2c2ccc(N(c3nccc4cccnc34)C3CCCC3)cc2)cc1C(F)(F)F [Compound 171, (2R,3R)-2-(4-(cyclopentyl(1,7-naphthyridin-8-yl)amino)phenyl)-N-(4-methyl-3-(trifluoromethyl)phenyl)piperidine-3-carboxamide]"
8,2 to 10 µM,"Cc1ccc(NC(=O)[C@H]2CCCN[C@H]2c2ccc(N(c3nccc4ccsc34)C3CCCC3)cc2)cc1C(F)(F)F [Compound 173, (2R,3S)-2-(4-(cyclopentyl(thieno[2,3-c]pyridin-7-yl)amino)phenyl)-N-(4-methyl-3-(trifluoromethyl)phenyl)piperidine-3-carboxamide]"
9,2 to 10 µM,"Cc1ccc(NC(=O)[C@@H]2CCCN[C@H]2c2ccc(N(c3ncnc4cccnc34)C3CCCC3)cc2)cc1C(F)(F)F [Compound 174, (2R,3R)-2-(4-(cyclopentyl(pyrido[3,2-d]pyrimidin-4-yl)amino)phenyl)-N-(4-methyl-3-(trifluoromethyl)phenyl)piperidine-3-carboxamide]"
10,2 to 10 µM,"Cc1ccc(NC(=O)[C@H]2CCCN[C@H]2c2ccc(N(c3nccc4ccccc34)C3CCCC3)cc2)cc1C(F)(F)F [Compound 175, (2R,3S)-2-(4-(cyclopentyl(isoquinolin-1-yl)amino)phenyl)-N-(4-methyl-3-(trifluoromethyl)phenyl)piperidine-3-carboxamide]"
11,2 to 10 µM,"Cc1ccc(NC(=O)[C@H]2CCCN[C@H]2c2ccc(N(c3ncnc4cccnc34)C3CCCC3)cc2)cc1C(F)(F)F [Compound 176, (2R,3S)-2-(4-(cyclopentyl(pyrido[3,2-d]pyrimidin-4-yl)amino)phenyl)-N-(4-methyl-3-(trifluoromethyl)phenyl)piperidine-3-carboxamide]"

# From patent US20240043439A1, “COMPOUNDS AS C5AR INHIBITORS” (Kira Pharmaceuticals (Suzhou) Ltd., priority 2020, published 2024)
